The values that follow come from the Kinase Knowledgebase extract (Sharma et al. 2016).

This test addresses PIK3CA (human) (UniProt P42336). As to the kind of experiment: Inhibition of PIK3CA Kinase Activity.

Molecules are shown by their SMILES.

PIK3CA (human), sequence (P42336 whole entry, looked up): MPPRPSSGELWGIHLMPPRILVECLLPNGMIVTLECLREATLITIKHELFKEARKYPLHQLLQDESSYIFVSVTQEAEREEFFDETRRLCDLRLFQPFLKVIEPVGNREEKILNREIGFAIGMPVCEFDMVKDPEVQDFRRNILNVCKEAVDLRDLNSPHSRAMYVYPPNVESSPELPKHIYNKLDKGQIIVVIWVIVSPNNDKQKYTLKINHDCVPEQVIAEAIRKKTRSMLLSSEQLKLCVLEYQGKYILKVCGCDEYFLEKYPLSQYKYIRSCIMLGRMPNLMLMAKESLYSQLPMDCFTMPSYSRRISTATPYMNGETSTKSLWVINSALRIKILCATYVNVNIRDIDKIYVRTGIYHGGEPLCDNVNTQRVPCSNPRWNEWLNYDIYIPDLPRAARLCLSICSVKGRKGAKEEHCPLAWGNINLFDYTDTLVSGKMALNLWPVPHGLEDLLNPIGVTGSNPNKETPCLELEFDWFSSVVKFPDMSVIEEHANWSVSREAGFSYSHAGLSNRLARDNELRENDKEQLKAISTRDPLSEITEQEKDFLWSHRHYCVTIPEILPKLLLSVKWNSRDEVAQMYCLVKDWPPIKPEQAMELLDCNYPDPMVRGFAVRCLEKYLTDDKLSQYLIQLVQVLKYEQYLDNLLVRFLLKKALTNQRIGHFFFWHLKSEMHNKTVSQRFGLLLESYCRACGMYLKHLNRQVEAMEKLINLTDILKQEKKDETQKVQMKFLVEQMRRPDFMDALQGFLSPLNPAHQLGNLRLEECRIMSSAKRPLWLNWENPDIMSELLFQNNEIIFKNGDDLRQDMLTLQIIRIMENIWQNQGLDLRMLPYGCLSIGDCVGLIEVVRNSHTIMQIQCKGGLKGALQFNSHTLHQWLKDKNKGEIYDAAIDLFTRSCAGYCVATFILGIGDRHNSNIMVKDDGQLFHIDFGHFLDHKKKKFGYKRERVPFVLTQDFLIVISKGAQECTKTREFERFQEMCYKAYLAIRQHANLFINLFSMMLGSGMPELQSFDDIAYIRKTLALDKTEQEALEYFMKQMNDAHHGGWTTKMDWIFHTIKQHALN

Usually IC50 stands for the midpoint of a concentration-inhibition curve. Higher therefore signals lower potency. In the case of `CCNc1nc2ccc(-c3ccc4c(c3)CN(c3ccnc5ccc(OC)cc35)CCO4)cc2[nH]1`, the IC50 was 10 to 50 nM.
